In patent US10703748B2, “Diazanaphthalen-3-yl carboxamides and preparation and use thereof” (Samumed, LLC, priority 2017, dated 2020) one finds EC50 and inhibition data, which are given here for 16 compounds.

One experiment concerns the target DYRK1A kinase (Homo sapiens, UniProt Q13627). Put plainly: DYRK1A kinase activity (Ser/Thr 18 peptide Z-lyte FRET assay).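 Note: kinase activity read as coumarin/fluorescein emission ratio after development step, with unphosphorylated and phosphorylated peptide forms setting 0% and 100% controls, values from dose-response curves.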 It counts as biochemical. The settings on record: recombinant DYRK1A, 30 μM ATP, one hour at room temperature.
In a further experiment the target is GSK3β kinase (Homo sapiens, UniProt P49841). Description: GSK3β kinase activity (Ser/Thr 09 peptide Z-lyte FRET assay). It counts as biochemical. The settings on record: recombinant kinase, 46 μM ATP, one hour at room temperature; read-out: EC50.
The subject of experiment [1] is secreted cytokines TNFα, IL-6 and KC-GRO. Put plainly: Secreted cytokines in Lipopolysaccharide-stimulated BV-2 cells (Table 9 does not say which cytokine). The format is cell-based, mouse. Particulars: Mus musculus, BV-2, 5 h; read-out: EC50.
The test system of experiment [2] is SW480 colon carcinoma cells. Description: Cell viability assay (CellTiter-Glo). Particulars: Homo sapiens; for EC50: SW480, 96 h; for inhibition at 10 µM: SW480, read-out: percent inhibition at 10 μM. In general terms: ATP-based viability assays read luminescence as a measure of living cells.
Experiment [3] relates to Wnt-responsive Sp5-Luc reporter in SW480 colon carcinoma cells. Put plainly: Screening assay for Wnt activity (Sp5-Luc reporter gene assay). The settings on record: Homo sapiens; for EC50: SW480; for inhibition at 10 µM: SW480, read-out: percent inhibition at 10 μM. For orientation: Reporter assays use an easily measured gene product as a stand-in for the process of interest.

The next experiment has as its system IL-6. Description: IL-6 inhibition in LPS-stimulated human peripheral blood mononuclear cells (HTRF). The settings on record: Homo sapiens, PBMC; for EC50: 22 h; for inhibition at 10 µM: read-out: percentage in parentheses after EC50 >10. On the technique in general: Time-resolved FRET reads energy transfer from a long-lived donor to a nearby acceptor.
Experiment [4] has as its system α-smooth muscle actin (aSMA) positive LL29 cells. Put plainly: Inhibition of the fibrotic process: αSMA staining in TGF-β1 treated LL29 fibroblasts from IPF patients. The settings on record: Homo sapiens, Fibroblast; for EC50: 96 h; for inhibition at 10 µM: read-out: percentage in parentheses after EC50 >10.

Each structure is given as a SMILES string.

Chain of GSK3β kinase (P49841 whole entry): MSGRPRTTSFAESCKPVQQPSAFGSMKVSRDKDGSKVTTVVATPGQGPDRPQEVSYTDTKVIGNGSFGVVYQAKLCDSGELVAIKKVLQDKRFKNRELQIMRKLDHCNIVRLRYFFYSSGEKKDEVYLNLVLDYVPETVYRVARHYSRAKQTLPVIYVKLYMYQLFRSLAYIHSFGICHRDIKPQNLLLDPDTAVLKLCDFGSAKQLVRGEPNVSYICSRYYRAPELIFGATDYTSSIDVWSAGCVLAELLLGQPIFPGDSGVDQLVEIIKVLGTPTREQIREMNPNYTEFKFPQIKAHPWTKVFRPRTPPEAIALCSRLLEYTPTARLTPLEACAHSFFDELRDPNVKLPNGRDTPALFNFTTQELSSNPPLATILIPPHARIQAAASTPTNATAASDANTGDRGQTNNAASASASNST
Description for DYRK1A kinase: Representative compounds were screened using the assay procedure for DYRK1A kinase activity as described below.
Each compound was dissolved in DMSO as a 10 mM stock and used to prepare compound source plates.
This is a non-radioactive assay using fluorescence resonance energy transfer (FRET) between coumarin and fluorescein to detect kinase activity which is represented as a ratio of coumarin emission/fluorescein emission.
The mixture was allowed to incubate with the representative compounds for one hour at room temperature. All reactions were performed in duplicate. Unphosphorylated (“0% Control”) and phosphorylated (“100% control”) forms of Ser/Thr 18 served as control reactions. Additionally, an 11-point dose-response curve of Staurosporine (1 uM top) was run to serve as a positive compound control.
After incubation, Development Reagent A was diluted in Development Buffer then added to the reaction and allowed to further incubate for one hour at room temperature.
Dose-response curves were generated and inhibitory concentration (IC50) values were calculated using non-linear regression curve fit in the Dotmatics' Studies Software (Bishops Stortford, UK).

One may read the EC50 as the concentration at which the effect is half-maximal. As to `CN1CCN(c2ccc(C(=O)Nc3cc4cc(-c5cnn(C)c5)cnc4cn3)cn2)CC1` [Compound 2871, N-(3-(1-Methyl-1H-pyrazol-4-yl)-1,7-naphthyridin-6-yl)-6-(4-methylpiperazin-1-yl)nicotinamide], the EC50 on DYRK1A kinase was 16 nM; on GSK3β kinase it was over 10000 nM; in experiment [1], 1700 nM; in experiment [2], 4680 nM; in experiment [3], over 10000 nM; in the experiment on IL-6 it was over 10000 nM. Besides, the EC50 in experiment [4] turned out to be 9770 nM. The figures for the inhibition at 10 µM (in experiment [3]; in the experiment on IL-6) were 24.5% and 0%, respectively.

Take `O=C(Nc1ncc2ccc(-c3cncs3)cc2n1)[C@H]1CC[C@H](CN2CC(F)C2)CC1` [Compound 1519, trans-4-((3-fluoroazetidin-1-yl)methyl)-N-(7-(thiazol-5-yl)quinazolin-2-yl)cyclohexane-1-carboxamide]: the EC50 on DYRK1A kinase was 11 nM; at GSK3β kinase it was 772 nM; in experiment [1], 69 nM; in experiment [2], over 10000 nM; in experiment [3], 2280 nM; with IL-6, over 10000 nM. The same compound had an EC50 in experiment [4] of 2400 nM. Further, the inhibition at 10 µM in experiment [2] is 17.1%; in the experiment with IL-6, 2.9%.

Turning to `Cn1cc(-c2cnc3cnc(NC(=O)C4CCN(S(C)(=O)=O)CC4)cc3c2)cn1` [Compound 2792, N-(3-(1-Methyl-1H-pyrazol-4-yl)-1,7-naphthyridin-6-yl)-1-(methylsulfonyl) piperidine-4-carboxamide], the EC50 was 12 nM on DYRK1A kinase; 1150 nM at GSK3β kinase; 357 nM in experiment [1]; over 10000 nM in experiment [2]; over 10000 nM in experiment [3]; over 10000 nM in the experiment with IL-6. The compound also showed an EC50 in experiment [4] of over 10000 nM. In addition, the inhibition at 10 µM worked out at 29% in experiment [2], 38.1% in experiment [3], 4% in the experiment on IL-6 and 44.8% in experiment [4].

As for `CN1CCC(Oc2ccc(C(=O)Nc3cc4nc(-c5cnn(C)c5)ccc4cn3)cc2)CC1` [Compound 145, N-(2-(1-methyl-1H-pyrazol-4-yl)-1,6-naphthyridin-7-yl)-4-((1-methylpiperidin-4-yl)oxy)benzamide], the half-maximal effective concentration (EC50) stood at 5 nM on DYRK1A kinase; 2000 nM on GSK3β kinase; 212 nM in experiment [1]; 535 nM in experiment [2]; 259 nM in experiment [3]; 3250 nM in the experiment on IL-6. In experiment [4], the midpoint of the response, the EC50, lay at 369 nM.

`CN(C)C1CCN(c2cc(C(=O)Nc3ncc4ccc(-c5cn(C)nn5)cc4n3)ccn2)CC1` [Compound 1282, 2-(4-(Dimethylamino)piperidin-1-yl)-N-(7-(1-methyl-1H-1,2,3-triazol-4-yl)quinazolin-2-yl)isonicotinamide]: the EC50 is 8 nM at DYRK1A kinase; 453 nM at GSK3β kinase; 1000 nM in experiment [1]; 1340 nM in experiment [2]; 742 nM in experiment [3]; over 10000 nM with IL-6. In experiment [4], this compound yielded an EC50 of 2540 nM. The inhibition at 10 µM in the experiment on IL-6 worked out at 42.4%.

In the case of `Nc1cncc(-c2ccc3cnc(NC(=O)c4ccc(OC5CCNCC5)cc4)cc3n2)c1` [Compound 804, N-(2-(5-Aminopyridin-3-yl)-1,6-naphthyridin-7-yl)-4-(piperidin-4-yloxy)benzamide], the EC50 on DYRK1A kinase stood at 2 nM; at GSK3β kinase, 4680 nM; in experiment [1], 104 nM; in experiment [2], 272 nM; in experiment [3], 289 nM; in the experiment with IL-6 it was 1590 nM. In experiment [4], this compound yielded an EC50 of 482 nM.

As to `CN1CCN(c2cccc(C(=O)Nc3ncc4ccc(-c5cnn(C)c5)cc4n3)c2)CC1` [Compound 1047, N-(7-(1-Methyl-1H-pyrazol-4-yl)quinazolin-2-yl)-3-(4-methylpiperazin-1-yl) benzamide], the EC50 worked out at 8 nM on DYRK1A kinase; 661 nM on GSK3β kinase; 780 nM in experiment [1]; 8470 nM in experiment [2]; 573 nM in experiment [3]; 3710 nM with IL-6. Moreover, the EC50 in experiment [4] was 1930 nM.

Take `Cn1cncc1-c1cc2cc(NC(=O)c3cccc(CN4CCCC4)c3)ncc2cn1` [Compound 4077, N-(6-(1-Methyl-1H-imidazol-5-yl)-2,7-naphthyridin-3-yl)-3-(pyrrolidin-1-ylmethyl)benzamide]: the EC50 was 7 nM on DYRK1A kinase; 2280 nM at GSK3β kinase; 2400 nM in experiment [1]; 2780 nM in experiment [2]; 200 nM in experiment [3]; over 10000 nM in the experiment on IL-6. The EC50 in experiment [4] was found to be 1020 nM. Besides, the inhibition at 10 µM with IL-6 is 3.6%.

As to `Cn1cncc1-c1ccc2cnc(NC(=O)c3cccc(CN4CCCC4)c3)nc2c1` [Compound 1356, N-(7-(1-Methyl-1H-imidazol-5-yl)quinazolin-2-yl)-3-(pyrrolidin-1-ylmethyl)benzamide], the EC50 on DYRK1A kinase was 5 nM; at GSK3β kinase, 2780 nM; in experiment [1], 1100 nM; in experiment [2] it was 8600 nM; in experiment [3], 2570 nM; in the experiment with IL-6 it was 8060 nM. The EC50 in experiment [4] worked out at 3600 nM.

In the case of `Nc1cncc(-c2ccc3cnc(NC(=O)c4ccc(OC5CCNCC5)cc4)nc3c2)c1` [Compound 1710, N-(7-(5-Aminopyridin-3-yl)quinazolin-2-yl)-4-(piperidin-4-yloxy)benzamide], the EC50 at DYRK1A kinase was 2 nM; on GSK3β kinase, 8040 nM; in experiment [1], 5500 nM; in experiment [2] it was over 10000 nM; in experiment [3], 3380 nM; with IL-6 it was over 10000 nM. This compound returned a half-maximal effective concentration (EC50) in experiment [4] of over 10000 nM. The inhibition at 10 µM in experiment [2] was 39.6%; in the experiment with IL-6, 7.2%; in experiment [4] it was 10.4%.

Turning to `CN1CCN(c2cc(C(=O)Nc3cc4cc(-c5ccc(N)nc5)ncc4cn3)ccn2)CC1` [Compound 4434, N-(6-(6-Aminopyridin-3-yl)-2,7-naphthyridin-3-yl)-2-(4-methylpiperazin-1-yl)isonicotinamide], the EC50 on DYRK1A kinase was 12 nM; at GSK3β kinase, over 10000 nM; in experiment [1], 9500 nM; in experiment [2] it was 5150 nM; in experiment [3] it was 8480 nM; in the experiment on IL-6, 9850 nM. The compound also registered an EC50 in experiment [4] of 1600 nM.

For `CN1CCC(n2cc(C(=O)Nc3ncc4ccc(-c5cncc6[nH]ccc56)cc4n3)cn2)CC1` [Compound 1802, N-(7-(1H-Pyrrolo[2,3-c]pyridin-4-yl)quinazolin-2-yl)-1-(1-methylpiperidin-4-yl)-1H-pyrazole-4-carboxamide], the EC50 was 7 nM at DYRK1A kinase; over 10000 nM on GSK3β kinase; 4400 nM in experiment [1]; 1370 nM in experiment [2]; 1400 nM in experiment [3]; over 10000 nM in the experiment with IL-6. The compound also returned an EC50 in experiment [4] of over 10000 nM. For the same compound, the figures for the inhibition at 10 µM (in the experiment with IL-6; in experiment [4]) were 47.2% and 47.6%, respectively.

Consider `CN1CCC(n2cc(C(=O)Nc3cc4cc(-c5cnn(C)c5)cnc4cn3)cn2)CC1` [Compound 2949, N-(3-(1-Methyl-1H-pyrazol-4-yl)-1,7-naphthyridin-6-yl)-1-(1-methylpiperidin-4-yl)-1H-pyrazole-4-carboxamide], for which the EC50 was 24 nM on DYRK1A kinase; over 10000 nM at GSK3β kinase; 454 nM in experiment [1]; 440 nM in experiment [2]; 59 nM in experiment [3]; 9150 nM in the experiment on IL-6. The compound further returned a half-maximal effective concentration (EC50) in experiment [4] of 5150 nM.

Regarding `CN1CCN(c2ncc(C(=O)Nc3ncc4ccc(-c5cnn(C)c5)cc4n3)s2)CC1` [Compound 4570, N-(7-(1-Methyl-1H-pyrazol-4-yl)quinazolin-2-yl)-2-(4-methylpiperazin-1-yl) thiazole-5-carboxamide], the concentration for a half-maximal effect (EC50) is 3 nM at DYRK1A kinase; 2180 nM at GSK3β kinase; 128 nM in experiment [1]; 5620 nM in experiment [2]; 3260 nM in experiment [3]; over 10000 nM in the experiment with IL-6. The compound further displayed an EC50 in experiment [4] of over 10000 nM. The inhibition at 10 µM in the experiment on IL-6 is 18.4%; in experiment [4], 5.5%.

On to `O=C(Nc1cc2nc(-c3cncs3)ccc2cn1)c1ccc(OC2CCNCC2)cc1` [Compound 624, 4-(Piperidin-4-yloxy)-N-(2-(thiazol-5-yl)-1,6-naphthyridin-7-yl)benzamide], for which the half-maximal effective concentration (EC50) on DYRK1A kinase was 3 nM; on GSK3β kinase, 2930 nM; in experiment [1], 8800 nM; in experiment [2], 694 nM; in experiment [3] it was 750 nM; in the experiment on IL-6 it was 3080 nM. For the same compound, the EC50 in experiment [4] is 491 nM.

On to `O=C(Nc1cc2nc(-c3cnco3)ccc2cn1)[C@H]1CC[C@H](CO)CC1` [Compound 4548, trans-4-(Hydroxymethyl)-N-(2-(oxazol-5-yl)-1,6-naphthyridin-7-yl) cyclohexane-1-carboxamide], for which the EC50 on DYRK1A kinase was 19 nM; on GSK3β kinase it was 785 nM; in experiment [1], 400 nM; in experiment [2], over 10000 nM; in experiment [3] it was over 10000 nM; in the experiment on IL-6, over 10000 nM. The same compound registered an EC50 in experiment [4] of over 10000 nM. Besides, the inhibition at 10 µM in experiment [2] came out at 29.8%; in the experiment with IL-6, 3.2%; in experiment [4] it was 50%.
